# Data as given in patent US8664249B2, “Tetrasubstituted benzenes” (EnVivo Pharmaceuticals, Inc., priority 2007, dated 2014).
# How the values were obtained:
# γ-secretase = γ-secretase (Homo sapiens, UniProt P49768); test: Aβ42 lowering in HEK-293 cells overexpressing APP (ELISA of conditioned medium); type: cell-based
# Protocol: Transfected cells overexpressing β-APP or its equivalent producing the Aβ peptide can be used to monitor the effects of synthetic compounds on the production of Aβ.
# To analyze a compound's effects on the concentrations of the various products of the γ-secretase cleavage activity, the Aβ peptides, various methods known to a person skilled in the art are available.
# Cells were grown to approximately 70-80% confluency subsequent to the addition of test compounds. The growth media was aspirated or removed, the cells washed, and replaced with 100 μl of compound, appropriately diluted in serum free media. The plates are then incubated for 16-18 hours at 37° C.
# Conditioned Medium samples are removed for analysis/quantitation of the various Aβ peptide levels by differential ELISA's as described in accompanying instructions to the kits.
# Aβ = test: In vivo Aβ lowering in C57BL/6 mice (FIG. 1); set-up: species or system mouse; conditions: one dose at 30 mg/kg in Solutol HS 15:Ethanol:Water (15:10:75), Aβ measured at 3 hours
# Text: Practitioners will also know that similar methods can also be applied to other species such as mice (including transgenic strains such as Tg2576), guinea pig, dog and monkey.
melting point,SMILES,other results
148 to 149 °C,"CC(C)CC(C(=O)O)c1cc(-c2ccc(C(F)(F)F)cc2)c(OCC2CC2)c(C(F)(F)F)c1 (centres unmarked) [Example 1055, 2-(6-Cyclopropylmethoxy-5,4′-bis-trifluoromethyl-biphenyl-3-yl)-4-methyl-pentanoic Acid]",–
–,"O=C(O)C1(c2cc(Cl)c(-c3ccc(C(F)(F)F)cc3)c(OCC(F)(F)F)c2)CCCC1 [Example 1837, 1-(2-chloro-6-(2,2,2-trifluoroethoxy)-4′-(trifluoromethyl)biphenyl-4-yl)cyclopentanecarboxylic acid]",EC50 (γ-secretase): < 1000 nM
110 to 111 °C,"CC(C)CC(C(=O)O)c1cc(OCC2CC2)c(-c2ccc3nonc3c2)cc1F (centres unmarked) [Example 754, 2-(4-(benzo[c][1,2,5]oxadiazol-5-yl)-5-(cyclopropylmethoxy)-2-fluorophenyl)-4-methylpentanoic acid]",–
118 to 119 °C,"CC(C)CC(C(=O)O)c1cc(Cl)c(-c2ccc(Cl)c(Cl)c2)c(OCC2CC2)c1 (centres unmarked) [Example 3201, 4-Methyl-2-(2,3′,4′-trichloro-6-cyclopropylmethoxy-biphenyl-4-yl)-pentanoic acid]",–
52 to 53 °C,"CC(C)CC(C(=O)O)c1cc(Cl)c(-c2ccc(Cl)cc2)c(OCC2CC2)c1 (centres unmarked) [Example 3200, 2-(2,4′-Dichloro-6-cyclopropylmethoxy-biphenyl-4-yl)-4-methyl-pentanoic acid]",–
110 to 111 °C,"CC(C)CC(C(=O)O)c1cc(OCC2CC2)c(-c2ccc(C(F)(F)F)cc2)cc1F (centres unmarked) [Example 724, 2-(2-cyclopropylmethoxy-5-fluoro-4′-trifluoromethyl-biphenyl-4-yl)-4-methyl-pentanoic acid]",–
115 to 116 °C,"CC(C)CC(C(=O)O)c1cc(Cl)c(-c2ccc(C(F)(F)F)cc2)c(OCC2CC2)c1 (centres unmarked) [Example 1904, 2-(2-Chloro-6-cyclopropylmethoxy-4′-trifluoromethyl-biphenyl-4-yl)-4-methyl-pentanoic acid]",–
–,"CC(C)c1ccc(-c2cc(C(CC3CC3)C(=O)O)cc(Cl)c2OCC(F)(F)F)cc1 (centres unmarked) [Example 1301, 2-(5-chloro-4′-isopropyl-6-(2,2,2-trifluoroethoxy)biphenyl-3-yl)-3-cyclopropylpropanoic acid]",effect on Aβ after administration (Aβ): desirable effect on Aβ
